Measurements taken from patent US20240199571A1, “THIOPHENE COMPOUND AND APPLICATION THEREOF” (MEDSHINE DISCOVERY INC., priority 2021, published 2024).
Counter-ions that a name gives are not always drawn. Like-named read-outs stand apart in the source and are kept apart here.

What was measured:
[1] = molecular target: T1, human LSD1 (Homo sapiens (Human), UniProt O60341); assay: Experiment 1A: in vitro LSD1 enzyme activity, enzyme-coupled fluorescence (HRP/Amplex Red), H3K4me peptide 20 μM (Wuhan Heyan); format: biochemical; conditions: histone H3K4me peptide 20 μM
Description: Experiment 1A: Evaluation of Enzyme Activity
Testing unit: Wuhan Heyan Biomedical Technology Co., Ltd.
The purpose of the assay was to test the in vitro inhibitory activity of the compounds against LSD1. The enzyme used in the assay was human LSD1, and the standard substrate was histone H3K4me peptide (20 μM). The activity of the compounds was determined by the enzyme-coupling fluorescent method by the combined detection of H2O2 generated after the reaction of LSD1 by horseradish peroxidase (HRP) and the fluorescent reagent Amplex Red. Starting from 10 μM, the compounds were 3-fold diluted to detect the IC50 values of the compounds at 10 concentrations. The enzyme and substrate were incubated for 30 minutes before the compound was added to the substrate to start the reaction. Fluorescence detector: EnVision, excitation wavelength: Ex/Em=530/590 nM.

[2] = system: NCI-H1417 cells; assay: Experiment 2: inhibition of NCI-H1417 cell proliferation (CellTiter-Glo, 10 days); format: cell-based; conditions: Homo sapiens, 240 h, 10 days incubation
Method in brief: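 Cells at 1000 per well exposed to 10-point 3-fold dilutions from 10 μM top concentration for 10 days. Viability by CellTiter-Glo luminescence; inhibition normalized to max/min controls, IC50 from four-parameter fit.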

[3] = Experiment 3: pharmacokinetic evaluation in CD-1 mice (IV and oral); format: in vivo; conditions: mouse, plasma; for clearance / half-life / Vd: IV 1 mg/kg; for clearance: read-out: Clearance rate CL; for half-life: read-out: Half life T1/2 (IV, h) (converted); for Vd: read-out: Volume of distribution at steady state Vdss; for bioavailability: PO 2 mg/kg vs IV 1 mg/kg, read-out: Bioavailability F (%); for AUC(0-t): PO 2 mg/kg, read-out: Area under drug-time curve AUC0-last PO; for Cmax: single dose, oral 2 mg/kg, read-out: Peak concentration Cmax
Description: Experiment 3: Pharmacokinetic Evaluation of Compounds
Experimental purpose: To test the pharmacokinetics of compounds in CD-1 mice in vivo
CD-1 mice (male/female, 7 to 9 weeks old, Shanghai SLAC)
The pharmacokinetic characteristics of the compounds in rodents after intravenous injection and oral administration were tested according to the standard protocol. In the experiment, the candidate compound was formulated into clear solutions, and a single intravenous injection and oral administration were given to mice. The vehicle for intravenous injection and oral administration was a mixed vehicle composed of 10% dimethyl sulfoxide and 90% hydroxypropyl β-cyclodextrin with a content of 10%. In this project, four male/female CD-1 mice were used. Two mice were injected intravenously at a dose of 1 mg/kg, and plasma samples were collected at 0.083, 0.25, 0.5, 1, 2, 4, 8, and 24 hours after administration; the other two were administered orally by gavage at a dose of 2 mg/kg, and plasma samples were collected at 0.25, 0.5, 1, 2, 4, 8, and 24 hours after administration. The samples were centrifuged at 3200 g for 10 minutes at 4° C., and plasma samples were obtained by separating the supernatant. A methanol solution containing internal standard with 20 times the volume of the sample was added thereto to precipitate the protein, and the mixture was centrifuged at 12000 g for 15 minutes at 4° C. 50 μL of the supernatant was taken and transferred to a 96-well plate and centrifuged again. The supernatant was taken for sampling. The plasma concentration was quantitatively analyzed using LC-MS/MS analysis method, and pharmacokinetic parameters, such as peak concentration (Cmax), clearance rate (CL), half-life (T1/2), volume of distribution at steady state (Vdss), area under drug-time curve (AUC0-last), bioavailability (F).

[4] = system: human small cell lung cancer NCI-H1417 cell subcutaneous xenograft tumor; assay: Experiment 5: in vivo pharmacodynamic study, NCI-H1417 subcutaneous xenograft tumor in CB17-SCID mice; conditions: 10 mg/kg, p.o.; for Mean tumor volume ± SEM (mm^3) (Day 28): day 28 after administration; for TGI (%): tumor volume at day 28
From the text: Experiment 5: In Vivo Pharmacodynamic Study of Compounds on CB17-SCID Mouse Model of Human Small Cell Lung Cancer NCI-H1417 Cell Subcutaneous Xenograft Tumor
The purpose of this experiment was to evaluate the in vivo efficacy of the compounds of the present disclosure on CB17-SCID mouse model of human small cell lung cancer NCI-H1417 cell subcutaneous xenograft tumor.
5.2 Experimental Animals: • Species: mice • Strain: CB17-SCID mice • Week age and weight: 6-8 weeks old, 18 to 22 grams • Gender: Female • Supplier: Beijing Vital River Laboratory Animal Technology Co., Ltd.
Human lung cancer cells NCI-H1417 were cultured in vitro in suspension in RPMI 1640 medium with 10% fetal bovine serum, 100 U/mL penicillin, and 100 μg/mL streptomycin at 37° C. in a 5% CO2 cell culture incubator. Routine digestion and passage treatment were performed twice a week. When the number of cells reached the required number, the cells were counted and resuspended in PBS at a density of 10×10^6 cells/200 μL.
0.2 mL of NCI-H1417 tumor cells (containing 10×10^6 cells) suspension (PBS: matrix gel=1:1) was subcutaneously inoculated on the right back of mice, and in pharmacodynamic experiments, on the 16th day after cell inoculation, when the average tumor volume reached 86 mm^3, the subjects were randomly grouped and the administration started.
The experimental vehicle was 5% dimethyl sulfoxide/95% (10% Solutol) solution. Preparation method: 3.8 mL of […] was taken and added to 34.2 mL of double-distilled water, 2 mL of dimethyl sulfoxide was added thereto, and the mixture was mixed well. The test substance was dissolved with the vehicle, prepared as a homogeneous solution of a certain concentration, and stored at 4° C.
The experimental indicator was to examine whether tumor growth was inhibited, delayed, or cured. The tumor diameter was measured twice a week using vernier calipers. The calculation formula of tumor volume is V=0.5a×b^2, wherein a and b represent the long and short diameters of the tumor respectively.
The tumor inhibitory efficacy of compounds was evaluated by TGI (%). TGI (%) reflects the tumor growth inhibition rate. Calculation of TGI (%): TGI (%)=[1−(Average tumor volume at the end of administration in a certain treatment group−Average tumor volume at the beginning of administration in this treatment group)/(Average tumor volume at the end of treatment in the vehicle control group−Average tumor volume at the beginning of treatment in the vehicle control group)]×100%.

[5] = molecular target: T1, human LSD1; assay: Experiment 1B: in vitro LSD1 enzyme activity, enzyme-coupled fluorescence (HRP/Amplex Red), H3(1-21)K4me2 peptide 10 μM (Reaction Biology); format: biochemical; conditions: histone H3(1-21)K4me2 peptide 10 μM
Method in brief: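 Human LSD1 with 10 μM histone H3(1-21)K4me2 peptide; enzyme and substrate incubated 30 min before compound addition started the reaction. H2O2 detected via HRP/Amplex Red fluorescence (Ex/Em 535/590). IC50 from 10-point 3-fold dilutions starting at 10 μM.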

[6] = molecular target: hERG potassium ion channels (Homo sapiens (Human), UniProt Q12809); assay: Experiment 4: hERG potassium ion channel inhibition, automated patch clamp (Qpatch), CHO-hERG cells; format: cell-based; conditions: highest test concentration 40 μM
hERG potassium ion channels, sequence (Q12809 whole entry): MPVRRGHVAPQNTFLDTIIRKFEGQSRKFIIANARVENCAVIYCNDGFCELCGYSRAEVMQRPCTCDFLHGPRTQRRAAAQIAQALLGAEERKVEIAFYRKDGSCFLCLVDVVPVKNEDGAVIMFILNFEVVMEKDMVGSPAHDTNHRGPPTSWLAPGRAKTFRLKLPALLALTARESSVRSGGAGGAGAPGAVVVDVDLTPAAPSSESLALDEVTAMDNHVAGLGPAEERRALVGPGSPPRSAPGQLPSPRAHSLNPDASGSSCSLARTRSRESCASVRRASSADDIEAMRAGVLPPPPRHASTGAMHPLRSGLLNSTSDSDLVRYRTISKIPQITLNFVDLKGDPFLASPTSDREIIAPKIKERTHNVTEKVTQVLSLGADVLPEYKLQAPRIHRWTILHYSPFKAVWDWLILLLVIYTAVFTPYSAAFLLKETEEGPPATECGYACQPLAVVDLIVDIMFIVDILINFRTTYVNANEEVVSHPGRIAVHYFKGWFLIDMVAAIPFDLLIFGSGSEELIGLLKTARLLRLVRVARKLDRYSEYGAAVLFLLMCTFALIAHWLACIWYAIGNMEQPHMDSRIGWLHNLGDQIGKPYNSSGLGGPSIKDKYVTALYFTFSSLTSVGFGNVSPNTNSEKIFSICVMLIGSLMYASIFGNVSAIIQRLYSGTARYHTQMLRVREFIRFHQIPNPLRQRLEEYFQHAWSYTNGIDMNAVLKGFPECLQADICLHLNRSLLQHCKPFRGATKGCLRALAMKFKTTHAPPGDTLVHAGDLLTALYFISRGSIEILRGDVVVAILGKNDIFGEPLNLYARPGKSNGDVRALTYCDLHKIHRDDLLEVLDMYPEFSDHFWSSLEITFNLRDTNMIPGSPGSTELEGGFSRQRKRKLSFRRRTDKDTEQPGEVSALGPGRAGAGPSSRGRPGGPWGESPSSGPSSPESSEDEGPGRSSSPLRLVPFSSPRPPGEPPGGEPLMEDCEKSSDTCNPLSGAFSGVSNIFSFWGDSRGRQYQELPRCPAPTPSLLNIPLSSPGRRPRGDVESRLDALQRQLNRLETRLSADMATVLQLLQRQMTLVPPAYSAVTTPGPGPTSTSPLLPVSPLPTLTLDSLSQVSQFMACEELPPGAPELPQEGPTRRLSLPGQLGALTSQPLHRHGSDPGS
Description: Experiment 4: hERG Potassium Ion Channel Inhibition Assay
Experimental purpose: To test the effects of the test examples on hERG potassium ion channels using an automated patch clamp method.
4.1.1 CHO-hERG cells were cultured in a 175 cm^2 culture flask. When the cell density grew from 60% to 80%, the culture medium was removed. The cells were washed once with 7 mL of PBS (Phosphate Buffered Saline), and then 3 mL of Detachin cell dissociation reagent was added thereto for digestion.
4.1.2 After the digestion was completed, 7 mL of culture medium was added thereto for neutralization, then the mixture was centrifuged, the supernatant was aspirated, and then 5 mL of culture medium was added thereto for resuspension to ensure a cell density of 2×10^6/mL to 5×10^6/ML.
The single-cell high-resistance sealing and whole-cell modeling formation processes were all automatically completed by the Qpatch instrument of the Shanghai Institute of Materia Medica, Chinese Academy of Sciences. After obtaining the whole-cell recording modeling, the cells were clamped at −80 mV, and before a 5-second +40 mV depolarizing stimulus was given, a 50-millisecond −50 mV prepulse was first given, then the voltage was repolarized to −50 mV and holden for 5 seconds, and finally returned to −80 mV. This voltage stimulus was applied every 15 seconds, recorded for 2 minutes, and then the extracellular fluid was recorded for 5 minutes, and then the administration process was initiated, with compound concentrations starting at the lowest test concentration. The voltage stimulus was given for 2.5 minutes for each test concentration, and after all concentrations had been continuously given, 3 μM the positive control compound, Cisapride, was given. At least 3 cells were tested per concentration (n≥3).
4.4.1 The compound stock solution was diluted with DMSO, and 20 μL of DMSO solution was added with 10 μL of the compound stock solution, and serially diluted 3-fold to 6 DMSO concentrations.
4.4.2 4 μL of 6 DMSO concentrations of compounds were taken respectively and added to 396 μL of extracellular fluid, and the mixture was diluted 100-fold to 6 intermediate concentrations, then 80 μL of 6 intermediate concentrations of compounds was taken and added to 320 μL of extracellular fluid, and the mixture was diluted 5-fold to the final test concentration.
4.4.3 The highest test concentration was 40 μM, and the concentrations were respectively 40, 13.3, 4.4, 1.48, 0.494, and 0.165 μM for a total of six concentrations.
4.4.5 The preparation of the compound was completed by the Bravo instrument throughout the dilution process.
Experimental data were analyzed by GraphPad Prism 5.0 software.

Row | SMILES | IC50 [1] [nM] | IC50 [2] [nM] | clearance ([3]; female CD-1 mice) [mL/min/kg] | half-life ([3]; female CD-1 mice) [h] | Vd ([3]; female CD-1 mice) [L/kg] | bioavailability ([3]; female CD-1 mice) [%] | AUC(0-t) ([3]; female CD-1 mice) [µM·h] | Cmax ([3]; female CD-1 mice) [nM] | further results
1 | COc1ccc(-c2sc(C(=O)N3C4CCC3C(N)C4)cc2-c2ccc(C#N)c(F)c2)cc1F (racemic) [Hydrochloride of compound 2] | 122 | 1.75 | 19.6 | 5.23 | 7.9 | 47.7 | 1.43 | 209 | 
2 | COc1ccc(-c2sc(C(=O)N3CCC[C@@H](N)C3)cc2-c2ccc(C#N)c(F)c2)cc1F [Hydrochloride of compound 1] | 82 | 6.88 | 17.8 | 5.59 | 7.66 | 47.2 | 1.56 | 245 | clearance ([3]; male CD-1 mice): 16.7 mL/min/kg; half-life ([3]; male CD-1 mice): 6.13 h; Vd ([3]; male CD-1 mice): 8.33 L/kg; bioavailability ([3]; male CD-1 mice): 53.9%; AUC(0-t) ([3]; male CD-1 mice): 2.24 µM·h; Cmax ([3]; male CD-1 mice): 176 nM
3 | COc1ccc(-c2sc(C(=O)N3CCC(N)CC3)cc2-c2ccc(C#N)c(F)c2)cc1F [Hydrochloride of compound 4] | 110 | 30.1 |  |  |  |  |  |  | 
4 | COc1ccc(-c2sc(C(=O)N3CCNCC3)cc2-c2ccc(C#N)c(F)c2)cc1F [Hydrochloride of compound 5] | 345 |  |  |  |  |  |  |  | 
5 | COc1ccc(-c2sc(C(=O)N3CCCNCC3)cc2-c2ccc(C#N)c(F)c2)cc1F [Hydrochloride of compound 6] | 112 | 37.9 | 18 | 5.37 | 7.76 | 64 | 2.52 | 222 | 
6 | COc1ccc(-c2sc(C(=O)N3CCCC[C@@H](N)C3)cc2-c2ccc(C#N)c(F)c2)cc1F [Hydrochloride of compound 8] | 120 | 8.73 |  |  |  |  |  |  | 
7 | COc1ccc(-c2sc(C(=O)N3CC4CNCC4C3)cc2-c2ccc(C#N)c(F)c2)cc1F (stereo not shown) [Hydrochloride of compound 9] | 118 | 15.8 |  |  |  |  |  |  | 
8 | COc1ccc(-c2sc(C(=O)N3CCC4(CCNC4)CC3)cc2-c2ccc(C#N)c(F)c2)cc1F [Hydrochloride of compound 10] | 192 | 22.4 |  |  |  |  |  |  | 
9 | COc1ccc(-c2sc(C(=O)N3CC[C@@H](N)C3)cc2-c2ccc(C#N)c(F)c2)cc1F [Hydrochloride of compound 12] | 393 |  |  |  |  |  |  |  | 
10 | COc1ccc(-c2sc(C(=O)NC3CC4CCC3N4)cc2-c2ccc(C#N)c(F)c2)cc1F (stereo not shown) [Hydrochloride of compound 15] | 310 |  |  |  |  |  |  |  | 
11 | Cn1cc2cc(-c3sc(C(=O)N4CCC[C@@H](N)C4)cc3-c3ccc(C#N)c(F)c3)ccc2n1 [Hydrochloride of compound 36] |  | 1.17 | 37.3 | 2.01 | 4.71 | 49.6 | 0.971 | 224 | clearance ([3]; male CD-1 mice): 31.5 mL/min/kg; half-life ([3]; male CD-1 mice): 2.1 h; Vd ([3]; male CD-1 mice): 4.47 L/kg; bioavailability ([3]; male CD-1 mice): 33.9%; AUC(0-t) ([3]; male CD-1 mice): 0.742 µM·h; Cmax ([3]; male CD-1 mice): 148 nM; Mean tumor volume ± SEM (mm^3) (Day 28) ([4]; BID): 53 ± 3 mm^3; TGI (%) ([4]; BID): 109.13%; Mean tumor volume ± SEM (mm^3) (Day 28) ([4]; QD): 87 ± 11 mm^3; TGI (%) ([4]; QD): 99.65%; IC50 [5]: 3.44 nM
12 | CN[C@@H]1CCCN(C(=O)c2cc(-c3ccc(C#N)c(F)c3)c(-c3ccc4c(c3)nnn4CC(C)(C)O)s2)C1 [Hydrochloride of compound 121] |  | 7.7 |  |  |  |  |  |  | IC50 [6]: 20500 nM; Mean tumor volume ± SEM (mm^3) (Day 28) ([4]; QD): 75 ± 4 mm^3; TGI (%) ([4]; QD): 103.19%; IC50 [5]: 14.3 nM
